Data set [1] in a line: In vitro plasma protein binding in rabbit blood (rapid equilibrium dialysis, LC-MS/MS). Particulars: nominal 0.2, 2 and 20 μg/mL, read-out: unbound free fraction. The format is in vitro ADME. A general note: In equilibrium dialysis only unbound substance equilibrates across the membrane.
Data set [2] can be described thus: Ex vivo plasma protein binding, terminal bleed after 5 days of acute dosing. The format is in vitro ADME. Particulars: rabbit, plasma from dosed rabbits (ex vivo), oral, 30 mg/kg, terminal bleed after 5 days 30 mg/kg, week 12.
The nature of data set [3]: Plasma free selvigaltin pharmacokinetics, acute 5-day treatment. Format: in vivo, rabbit. The source says:
The dose employed was established based on pilot pharmacokinetics studies in rabbits performed historically in naïve rabbits (data not shown). This first part of the study allowed the determination of the therapeutic benefits of selvigaltin following acute treatment, thus validating the model for further investigation of this mechanism in a chronic treatment protocol.
After 1 week of standard diet, animals (n = 12) were randomly assigned to the following groups (Table 1A): • Control rabbits continued to receive a regular diet (RD) for 12 weeks and were treated for 5 days (days 1–5, p.o.), during the last week before culling, with either vehicle; RD+1W Veh group] or GB1211 (30 mg/kg; RD + 1W 30 mg group); • Rabbits received a high fat diet (HFD) for 12 weeks (RD implemented with 0.5% cholesterol and 2.5% vegetable fat) and were treated for 5 days (days 1–5, p.o.), during the last week before culling, with either vehicle (HFD + 1W Veh group) or GB1211 (30 mg/kg; HFD + 1W 30 mg group).
Liver homogenates were prepared by homogenisation of 200 mg liver tissue/ml water using a Fisherbrand™ Homogenizer 150 (Thermo Fisher Scientific, Waltham, MA). Plasma or liver homogenate were mixed 1 part matrix with 3 parts acetonitrile prior to centrifugation at 10,000 g for 10 min at 18°C with supernatant diluted x4 with water prior to LC-MS/MS analysis.

A short description of data set [4]: Plasma and liver selvigaltin concentrations after 4 weeks of treatment. Particulars: New Zealand White, rabbit, oral, HFD rabbits, 0.3, 1.0, 5.0 mg/kg, read-out: increased levels in liver tissue vs plasma. Format: in vivo. The procedure: After 1 week (W) of RD, the animals (n = 44) were randomly assigned to the following groups (Table 1B): • Control rabbits continued to receive a RD for 12 weeks and were treated with vehicle for 5 days a week (days 1–5, p.o.) during the last 4 weeks before culling (RD + 4W Veh group); • Rabbits received a HFD for 8 weeks and were culled (HFD 8W group); • Rabbits received a HFD for 12 weeks and were treated with vehicle for 5 days a week (days 1–5, p.o.) during the last 4 weeks before culling (HFD+4W Veh group); • Rabbits received a HFD for 12 weeks and were treated with GB1211 (0.3 mg/kg) for 5 days a week (days 1–5, p.o.) during the last 4 weeks before culling (HFD + 4W 0.3 mg group); • Rabbits received a HFD for 12 weeks and were treated with GB1211 (1.0 mg/kg) for 5 days a week (days 1–5, p.o.) during the last 4 weeks before culling (HFD + 4W 1.0 mg group); • Rabbits received a HFD for 12 weeks and were treated with GB1211 (5.0 mg/kg) for 5 days a week (days 1–5, p.o.) during the last 4 weeks before culling (HFD + 4W 5.0 mg group).
Liver homogenates were prepared by homogenisation of 200 mg liver tissue/ml water using a Fisherbrand™ Homogenizer 150 (Thermo Fisher Scientific, Waltham, MA). […]

On to `OC[C@H]1O[C@H](Sc2cncc(Br)c2)[C@H](O)[C@@H](n2cc(-c3cc(F)c(F)c(F)c3)nn2)[C@H]1O` [selvigaltin], for which the free fraction (fraction unbound) in data set [1] was 0.141. For the same molecule, the fraction unbound at 5 days is 0.929 in data set [2] (HFD rabbits) and 0.946 in data set [2] (RD rabbits). Also, the “steady state systemic plasma drug concentration vs rabbit galectin-3 binding KD” value in data set [3] (30 mg/kg/day p.o., acute treatment) is listed as ~40 fold. Moreover, in data set [3] (day 4 of treatment, 30 mg/kg p.o.), the “plasma exposure in HFD+1W 30 mg vs RD+1W 30 mg” value was “marginal increase in exposure”. The Kp at 4 weeks in data set [4] lay within 50 to 60.

For orientation: fraction unbound means the share of the substance not bound to proteins or other matrix.

For the origin of these results see publication PMC11322497 (Frontiers in Pharmacology, 2024).
